The text below walks through data of publication PMC13081163, “Discovery of a novel Nrf2 activator that modulates mitochondrial function in neurons by regulating DHRS3-Nrf2 interaction after ischemic stroke” (Theranostics, 2026).

SMILES strings stand for the structures.

One data set concerns tMCAO rats. Put plainly: Long-term recovery after tMCAO (survival, body weight, behaviour). The data set is classed as in vivo, rat. The conditions noted are these: 5 mg/kg tail vein injection for 7 d. On the procedure:
To assess the degree of neurological impairment, we conducted modified Neurological Severity Score (mNSS) according to previous experience. The investigator was blinded to the grouping situation during the whole experiment.
On postoperative day 3 two wooden boards of identical size were joined at a 30° angle, with a narrow gap retained at the junction. The rat was positioned facing the apex of the angle. When it advanced into the deeper part of the angle, bilateral whisker contact with the boards triggered a characteristic rearing response, followed by a turn to face the opposite direction. Each rat underwent 15 trials, and the number of right turns was recorded. The higher the right-turn ratio, the more severe the injury.
Rats were placed on a horizontal, stainless steel wire grid. The grid was then smoothly rotated 180 degrees to an inverted position and held stationary at a height of 0.8 m. A stopwatch was started immediately upon inversion to measure the latency to fall. The test was terminated if the animal remained on the grid for 60 s, at which point it was gently returned to its home cage, and a score of 60 s was recorded.
The Y-maze apparatus consisted of three symmetrically arranged enclosed arms (typically labeled Arms A, B, and C), each positioned 120° apart. At the start of each trial, the subject was placed in Arm A and allowed to move freely through the maze for 8 min. Spatial working memory was evaluated by calculating the spontaneous alternation rate, using the following formula:
Following a 2 h acclimation period, the rats were within an open field cubic box (100 × 100 × 40 cm^3) and allowed 5 min of unrestricted movement. The travel distance and the time spent in the central area were recorded.
The spatial learning and memory of rats were assessed using the Morris water maze (MWM) from post-operative days 23 to 26. Over four consecutive days, animals underwent training trials in which they were required to locate a submerged escape platform within 60 s. Each rat was gently placed into the water facing the pool wall. If the rat found the platform and remained on it for 10 s, the escape latency was recorded. If the platform was not found within 60 s, the rat was guided onto it and allowed to stay for 10 s, and the latency was recorded as 60 s. Following the training phase, the platform was removed, and a visual spatial memory test lasting for 60 s was conducted to assess the retention of memory. The number of platform-location crossings and the time spent in the target quadrant were recorded and analyzed.

The target in the next data set is T1, DHRS3-Nrf2 interaction (Homo sapiens, UniProt O75911).
T1 construct: purchased Ybio YB710012 (GST-Nrf2); YB765100 (DHRS3)
T1 sequence (O75911 1-302): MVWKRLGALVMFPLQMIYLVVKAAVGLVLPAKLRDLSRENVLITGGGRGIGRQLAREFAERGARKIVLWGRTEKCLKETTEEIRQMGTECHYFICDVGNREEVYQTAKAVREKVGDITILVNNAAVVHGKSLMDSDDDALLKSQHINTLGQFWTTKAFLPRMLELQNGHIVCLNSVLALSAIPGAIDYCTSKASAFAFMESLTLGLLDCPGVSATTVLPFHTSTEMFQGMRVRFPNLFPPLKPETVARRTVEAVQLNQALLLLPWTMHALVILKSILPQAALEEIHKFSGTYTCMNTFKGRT
Put plainly: GST pull-down of Nrf2 and DHRS3. To be noted: 100 nM, purified GST-tagged Nrf2 and DHRS3 proteins. The data set is classed as binding. On the procedure: GST-Nrf2 (YB710012, Ybio, China) or GST (Ag0040, Proteintech, China, as control) proteins were mixed with GST Resin (EA-IP-K008, Elabscience Biotechnology, China) for 2 h incubation on the shaker at 4 °C. Subsequently, both Cpd.51 (100 nM) and DHRS3 (YB765100, Ybio, China) were added to the mixture and rotated overnight at 4 °C [40]. Then, following the instructions, the sample buffer was added and heated to 100 °C for 10 min. After completing all steps, the mixture was centrifuged, and the supernatant was collected for western blotting analysis.

Data set [1] in a line: In vitro hepatic microsomal stability, overall statement. The data set is classed as in vitro ADME, human, dog, rat. The method, then: (§1) The liver microsomal incubation system comprised human, dog, or rat liver microsomal protein (0.75 mg/mL), nicotinamide adenine dinucleotide phosphate (NADPH) generation system, potassium phosphate buffer (0.1 M, pH 7.4), substrate, and inhibitor. The assay was conducted by first preparing a potassium phosphate buffer. Compounds and liver microsomes were then diluted and pre-incubated at 37 °C before initiating the reaction with NADPH. Aliquots were quenched with acetonitrile containing internal standard at specified time points. After sample processing (shaking and centrifugation), the supernatants were analyzed by LC-MS/MS to determine metabolic stability.

Data set [2] addresses T2, Keap1 BTB domain (48-180) (Homo sapiens, UniProt Q14145).
T2 construct: truncated form of Keap1 (residues 48-180 and residues 48-149)
Put plainly: SPR binding to truncated Keap1 (48-180). To be noted: read-out: KD, Keap1 BTB domain fragment. The method, then: The binding affinity of Cpd.51 or Oma to Keap1 proteins were measured using a Biacore T200. The overall experimental procedures were based on previous reports, [28]. Human recombinant Keap1 proteins or truncated form of Keap1 (residues 48-180 and residues 48-149) were captured on a CM5 chip by a standard amine coupling procedure. Binding sensorgrams were recorded by injecting various concentrations of Cpd.51 over the immobilized proteins surface. The dissociation constant was obtained by globally fitting the data (to the 1:1 Langmuir binding model using the Biacore Insight evaluation software (Cytiva, Marlborough, MA, USA). Affinity tests for Cpd.51 and DHRS3 were also performed using the aforementioned method.

Data set [3] can be described thus: Microsomal metabolic stability, human. The data set is classed as in vitro ADME. To be noted: human liver microsomes. The method, then:
as §1
Background: Liver microsomes are vesicles of endoplasmic reticulum, rich in cytochrome P450 enzymes.

Data set [4] in a line: Microsomal metabolic stability, rat. The format is in vitro ADME. To be noted: rat liver microsomes. The method, then: as §1

T2 sequence (Q14145 48-180): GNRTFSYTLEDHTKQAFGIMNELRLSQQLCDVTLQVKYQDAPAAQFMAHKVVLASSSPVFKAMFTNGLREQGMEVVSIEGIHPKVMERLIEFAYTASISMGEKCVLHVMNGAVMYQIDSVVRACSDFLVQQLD

A word on the Kd: it is the free concentration of one partner at which half of the binding sites on the other are occupied at equilibrium, for simple one-to-one binding. The CLint scaled is a measure of how fast metabolising enzymes remove a compound, apart from limits set by blood flow. A high value points to faster metabolism. As usually defined, the half-life is the time needed for the level to fall by half in the phase considered. The low end stands for rapid decline, the high end for slow decline. For `CC1(C)CCC2(C(=O)NO)CCC3(C)C(C(=O)C=C4C5(C)C=C(C#N)C(=O)C(C)(C)C5CCC43C)C2C1` (stereo not shown) [Cpd.51], in the data set on tMCAO rats, the “Morris water maze, spatial learning and memory” value is given as “only a modest capacity to improve these cognitive functions”; the “body weight and mNSS scores, long-term” value was “significantly improved body weight and mNSS scores”; the “mortality after tMCAO” value is “reduced mortality”. Also, the “corner, inverted screen, Y maze and open field tests” value in the data set with tMCAO rats (vs model group) is “exhibited improvements in neurological deficits, motor abilities, and spatial working and reference memory”. In addition, the “direct DHRS3-Nrf2 binding (GST pull-down)” value at DHRS3-Nrf2 interaction was “significantly reduced”. The “metabolic stability in microsomes” value in data set [1] is “moderate metabolic stability”. Also, in data set [2], the Kd was 31.3 µM. The “Remainig (%, t = 60 min)” value in data set [3] was determined as 28.9%. Moreover, in data set [3] (human, pH 7.4), the CLint scaled turned out to be 34 mL/min/kg and the half-life was 36.7 min. Besides, the “Remainig (%, t = 60 min)” value in data set [4] was found to be 51.1%. In addition, in data set [4] (rat, pH 7.4), the CLint scaled came to 41 mL/min/kg and the half-life came to 60.8 min.
